Assay results as given in US12473534B2, “Composition for culturing peripheral blood monocyte-derived regulatory t cell and regulatory T cell culturing method using same” (Immunisbio Co., Ltd., priority 2019, dated 2025).

How the values were obtained:
[1] = tested on: regulatory T cells derived from peripheral blood mononuclear cells; experiment: Culturing of regulatory T cells from peripheral blood mononuclear cells with myricetin or superoxide dismutase, FACS analysis; type: cell-based, human; details: for CD4+, CD25+, CD127− (%): flow cytometry; for Total number of cells: start 2.0×10^7 cells, control 20.8
Protocol: 30 mL to 60 mL of human peripheral blood was collected using a 10 mL heparinized vacuum blood collection tube (BD Vacutainer TM). Then, 15 mL of a solution of Ficoll-Paque Plus (endotoxin tested, density 1.077 g/mL, GE Healthcare, USA) was put into a 50 mL lymphocyte separation tube (Leucosep, Greiner Bio-One, Swiss), and the solution was allowed to precipitate down to a glass membrane in the tube by centrifugation at 2000 rpm. The collected blood was transferred to a separation tube and centrifuged at 2500 rpm to separate the erythrocytes and granulocyte layer at the bottom, and the mononuclear cell layer and platelets at the top, thereby separating the blood components. After centrifugation, the plasma in the separated upper layer was inactivated in a water bath at 56° C. for 30 minutes. After centrifugation, the separated lymphocyte layer was collected using a sterilized pipette and collected in a 15 mL tube. After the 15 mL tube with the collected lymphocytes were centrifuged, the supernatant was removed. Cells were washed by adding 10 mL of a buffer solution (PBS) to the lymphocytes from which the supernatant had been removed and suspending the cells. The number of cells was measured from some of the suspension using a hemocytometer, and only lymphocytes were collected by centrifuging again. In this case, the number of harvested lymphocytes was measured to be 20×10^6 cells in total, and the harvested lymphocytes were cultured according to Example 1 below. After the lymphocytes prepared in Experimental Example 1 were taken, the lymphocytes were cultured in a T-flask (SPL Life Sciences) containing a culture solution and 0.2 to 2 mL of plasma in a 5% CO2 incubator at 37° C. for 4 to 14 days. Furthermore, in order to induce a reaction with an activation receptor present on the cell surface of regulatory T cells, 0.001 to 0.03 of one or more antibodies selected from the group consisting of anti-CD2, anti-CD3, anti-CD7, anti-CD8, anti-CD28, anti-CD30L, anti-CD40, anti-CD70, anti-CD80, anti-CD83 and anti-CD86; one or more cytokines selected from the group consisting of interleukin-2, interleukin-4, interleukin-7, interleukin-12, interleukin-15, interleukin-34 and TGF-β; 0 to 250 μM of myricetin; and 0 to 50 μM of superoxide dismutase were administered. That is, lymphocytes measured to be a total number of 2.0×10^7 cells were added to 5 to 100 mL of KBM502 medium including the above-described plasma, antibodies, cytokines, myricetin and superoxide dismutase, and cultured in a CO2 incubator for 4 to 14 days. To confirm the differentiation of regulatory T cells, staining was performed with an anti-human antibody or mouse isotype antibody (BD-Pharmingen San Jose, USA) under a condition of CD4+, CD25+ and CD127−, which are surface proteins of regulatory T cells, measured by flow cytometry, and then analyzed using BD Accuri C6 Plus.

[2] = tested on: regulatory T cells derived from peripheral blood mononuclear cells after removal of CD8+ cells; experiment: Culturing of regulatory T cells with myricetin and superoxide dismutase only or in combination after removal of CD8, FACS analysis; type: cell-based, human; details: for Total number of cells: control 18.2
Protocol: After the lymphocytes prepared in Experimental Example 1 were taken, the lymphocytes were cultured in a T-flask (SPL Life Sciences) containing a culture solution and 0.2 to 2 mL of plasma in a 5% CO2 incubator at 37° C. for 4 to 14 days. Furthermore, in order to induce a reaction with an activation receptor present on the cell surface of regulatory T cells, 0.001 to 0.03 of one or more antibodies selected from the group consisting of anti-CD2, anti-CD3, anti-CD7, anti-CD8, anti-CD28, anti-CD30L, anti-CD40, anti-CD70, anti-CD80, anti-CD83 and anti-CD86; one or more cytokines selected from the group consisting of interleukin-2, interleukin-4, interleukin-7, interleukin-12, interleukin-15, interleukin-34 and TGF-β; 0 to 250 μM of myricetin; and 0 to 50 μM of superoxide dismutase were administered. That is, lymphocytes measured to be a total number of 2.0×10^7 cells were added to 5 to 100 mL of KBM502 medium including the above-described plasma, antibodies, cytokines, myricetin and superoxide dismutase, and cultured in a CO2 incubator for 4 to 14 days. After peripheral blood mononuclear cells were separated, the cells were suspended in MACS buffer from Miltenyi Biotec and reacted with Human CD8 MicroBeads, and then CD8+ cells were removed using an LD column in a QuadroMACS Separator. Then, the cells were cultured using the same culturing method as in Example 1, and treated with myricetin and superoxide dismutase by selecting the treatment concentration having the highest regulatory T cell distribution in Example 1. To confirm the differentiation of regulatory T cells, staining was performed with an anti-human antibody or mouse isotype antibody (BD-Pharmingen San Jose, USA) under a condition of CD4+, CD25+ and CD127−, which are surface proteins of regulatory T cells, measured by flow cytometry, and then analyzed using BD Accuri C6 Plus.

[3] = Day 0, after removal of CD8, flow cytometry
[4] = Day 7 of culture, after removal of CD8
[5] = Day 7 of culture, after removal of CD8, control 92.3

| Molecule | CD4+, CD25+, CD127− (%) ([1]; Day 0, before culture) | CD4+, CD25+, CD127− (%) ([1]; Day 7 of culture, control 18.0) | Total number of cells ([1]; Day 7 of culture) | CD4+, CD25+, CD127− (%) [2, 3] [%] | Total number of cells [2, 4] | CD4+, CD25+, CD127− (%) [2, 5] [%] |
| --- | --- | --- | --- | --- | --- | --- |
| O=c1c(O)c(-c2cc(O)c(O)c(O)c2)oc2cc(O)cc(O)c12 [M3, myricetin] | 2.1 | 24.7 | 28.6 ×10^7 cells | 0.4 | 20.8 ×10^7 cells | 97.6 |
| superoxide dismutase [S1] | 1.2 | 37.4 | 22.5 ×10^7 cells | 0.7 | 21.5 ×10^7 cells | 97.6 |
| superoxide dismutase [S2] | 1.2 | 37.1 | 25.2 ×10^7 cells | – | – | – |
| superoxide dismutase [S3] | 1.2 | 36.0 | 24.4 ×10^7 cells | – | – | – |
| O=c1c(O)c(-c2cc(O)c(O)c(O)c2)oc2cc(O)cc(O)c12 [M4, myricetin] | 2.1 | 23.3 | 25.6 ×10^7 cells | – | – | – |
| O=c1c(O)c(-c2cc(O)c(O)c(O)c2)oc2cc(O)cc(O)c12 [M1, myricetin] | 2.1 | 22.4 | 26.8 ×10^7 cells | – | – | – |
| O=c1c(O)c(-c2cc(O)c(O)c(O)c2)oc2cc(O)cc(O)c12 [M2, myricetin] | 2.1 | 22.9 | 26.7 ×10^7 cells | – | – | – |
